Laboratory results taken from the NIST ThermoML archive (doi:10.1016/j.jct.2006.03.017).
Numbers after ± are expanded uncertainties.

Assays:
[1] = refractive index (Na D-line) (dimensionless); details: 293.15 K; 101.33 kPa; Liquid; Standard Abbe refractometry
[2] = Liquid

refractive index [1]: 1.4603 ± 0.0032
mass density ([2]; 293.15 K, 101.33 kPa): 848.5 ± 44 kg/m3
vapor or sublimation pressure ([2]; 480.05 K, Distillation): 2 kPa
SMILES: CCCCCCCC/C=C\CCCCCCCCO [(Z)-9-octadecen-1-ol]
